Laboratory results reported in patent US20230218654A1, “COMPOSITIONS AND METHODS FOR TREATING HYPERGLYCEMIA IN TYPE-2 DIABETES” (The Board of Regents of the university of Oklahoma, priority 2020, published 2023).
“Also recorded” adds a separate entry of the source.

What was measured:
[1] = tested on: primary human hepatocytes; assay: Western blot of insulin signaling in primary human hepatocytes; format: cell-based
Description: Cells were pre-treated with increasing dose of MLN4924 for 1 h followed by 100 nM insulin stimulation for 4 h. Western blot was then performed to evaluate insulin signaling activation reflected by AKT phosphorylation.
Cells were treated with MLN4924 for 8 h. IRS1 band densitometry is shown as mean ± SEM of 8-9 independent batches. “* ”, vs. Vehicle, p less than 0.05.
Cells were treated with MLN4924 for 8 h. IRS2 band densitometry is shown as mean ± SEM of 8-9 independent batches. “* ”, vs. Vehicle, p less than 0.05.
FIG. 18B is a Western blot analysis showing that MLN4924 enhances hepatocyte insulin responsiveness (signaling) by delaying feedback IRS degradation. Primary human hepatocytes cells were serum starved for 16 h. Cells were then pre-treated with MLN4924 for 1 h followed by insulin stimulation for 4 h.
IRS protein in IRS 1 and IRS2 band intensity was normalized to Actin band intensity. n=8-9. “*”, p<0.05 (unpaired t-test), vs. Vehicle.
AML12 cells were a generous gift from Dr. Yanqiao Zhang (Northeast Ohio Medical University). AML12 cells were cultured in DMEM medium supplemented with a mixture of insulin-transferrin-selenium (#41400-045, ThermoFisher, Waltham, MA). For experiments, cells were cultured in serum free medium overnight before various treatments were initiated. The siGENOME SMARTpool siRNA and siControl were purchased from Dharmacon, Inc. (Lafayette, CO). […]

[2] = tested on: primary mouse hepatocytes; assay: Western blot of insulin signaling in primary mouse hepatocytes; format: cell-based; settings: 500 nM, 1 h
Description: MLN4924 enhances hepatocyte insulin responsiveness by delaying feedback IRS degradation (related to FIG. 18A). Cells were serum starved for 16 h then pre-treated with 500 nM MLN4924 for 1 h followed by 100 nM insulin stimulation in time course. Blots are representative of 2 independent experiments.
AML12 cells were a generous gift from Dr. Yanqiao Zhang (Northeast Ohio Medical University). AML12 cells were cultured in DMEM medium supplemented with a mixture of insulin-transferrin-selenium (#41400-045, ThermoFisher, Waltham, MA). For experiments, cells were cultured in serum free medium overnight before various treatments were initiated. The siGENOME SMARTpool siRNA and siControl were purchased from Dharmacon, Inc. (Lafayette, CO). The siRNA was transfected with Lipofectamine RNAiMAX reagent in a final concentration of 25 nM recommended by the manufacturer. Primary human hepatocytes and primary mouse hepatocytes were obtained from the Cell Isolation Core at the University of Kansas Medical Center. Treatments were initiated on the same day of isolation and completed within 24 hours.

With `NS(=O)(=O)OC[C@@H]1C[C@@H](n2ccc3c(N[C@H]4CCc5ccccc54)ncnc32)C[C@@H]1O` [MLN4924, ((1S,2S,4R)-4-(4-((1S)-2,3-dihydro-1H-inden-1-ylamino)-7H-pyrrolo[2,3-d]pyrimidin-7-yl)-2-hydroxycyclopentyl) methyl sulfamate] the “IRS1 and IRS2 protein abundance” value ([1]; MLN4924 (500 nM) 8 h, independent batches) was “consistently increased IRS1 and IRS2 protein abundance; also recorded: increased IRS protein abundance”, the “insulin activation of AKT” value ([1]; MLN4924 pre-treatment 1 h, 100 nM insulin 4 h) was “enhanced insulin activation of AKT; also recorded: increased IRS protein abundance and insulin-stimulated AKT activation” and the IRS protein abundance ([2]; then 100 nM insulin) was “increased IRS protein abundance”. For the same compound, the “insulin-stimulated AKT activation” value ([2]; then 100 nM insulin) was “increased IRS protein abundance and insulin-stimulated AKT activation” and the insulin signaling desensitization ([2]; then 100 nM insulin in time course) was “significantly delayed cellular insulin desensitization; also recorded: significantly delayed insulin signaling desensitization”.
